Measurements as given in the NIST ThermoML archive (doi:10.1021/acs.jced.9b00313).

Key:
[1] = refractive index (Na D-line) (dimensionless); xn = mol fraction of the nth substance listed; settings: 86.5 kPa, Liquid, Standard Abbe refractometry
[2] = xn = mol fraction of the nth substance listed; settings: 86.5 kPa, Liquid; for viscosity: Capillary tube (Ostwald / Ubbelohde) method; for speed of sound: Frequency=3 MHz, Single path-length method; for mass density: Vibrating tube method

C[N+](C)(C)CCO.[Cl-] [choline chloride] + NCCO
Settings	mass density, [2] [kg/m3]	refractive index, [1]	speed of sound, [2] [m/s]	viscosity, [2] [mPa·s]
288.15 K, x1 = 0.125	1090.06	1.4905	1989.5	50.12
288.15 K, x1 = 0.167	1091.28	1.4934	2006.1	59.66
293.15 K, x1 = 0.125	1086.89	1.4884	1977.8	42.39
293.15 K, x1 = 0.167	1088.11	1.4913	1994.5	52.01
298.15 K, x1 = 0.125	1083.96	1.4862	1965.3	35.76
298.15 K, x1 = 0.167	1085.18	1.4891	1982	37.69
303.15 K, x1 = 0.125	1081	1.4844	1953	30.23
303.15 K, x1 = 0.167	1082.22	1.4873	1970.7	38.98

C[N+](C)(C)CCO.[Cl-] [choline chloride] + OCCO
Settings	mass density, [2] [kg/m3]	refractive index, [1]	speed of sound, [2] [m/s]	viscosity, [2] [mPa·s]
288.15 K, x1 = 0.125	1113.73	1.467	1919.5	32.07
288.15 K, x1 = 0.167	1115.91	1.4732	1931.8	43.39
293.15 K, x1 = 0.125	1111.87	1.4649	1907.5	24.34
293.15 K, x1 = 0.167	1113.09	1.4711	1920.1	35.75
298.15 K, x1 = 0.125	1109.07	1.4628	1895.2	17.71
298.15 K, x1 = 0.167	1110.23	1.4687	1908.6	28.86
303.15 K, x1 = 0.125	1106.16	1.461	1883.5	12.19
303.15 K, x1 = 0.167	1107.34	1.4668	1897.1	22.72

C[N+](C)(C)CCO.[Cl-] [choline chloride] + OCCOCCO
Settings	mass density, [2] [kg/m3]	refractive index, [1]	speed of sound, [2] [m/s]	viscosity, [2] [mPa·s]
288.15 K, x1 = 0.125	1115.24	1.4797	1752.1	110.12
288.15 K, x1 = 0.167	1117.43	1.4857	1764.7	125.8
293.15 K, x1 = 0.125	1113.38	1.4776	1740.1	102.39
293.15 K, x1 = 0.167	1114.61	1.4836	1752.3	118.16
298.15 K, x1 = 0.125	1110.59	1.4754	1728.4	95.76
298.15 K, x1 = 0.167	1111.75	1.4814	1740.3	111.27
303.15 K, x1 = 0.125	1107.68	1.4735	1716.3	90.23
303.15 K, x1 = 0.167	1108.86	1.4795	1728.4	105.11

OCCNCCO [diethanolamine] + C[N+](C)(C)CCO.[Cl-]
Settings	mass density, [2] [kg/m3]	refractive index, [1]	speed of sound, [2] [m/s]	viscosity, [2] [mPa·s]
288.15 K, x2 = 0.125	1102.46	1.4892	1826.4	506.3
288.15 K, x2 = 0.167	1104.58	1.492	1839	528.22
293.15 K, x2 = 0.125	1099.49	1.4871	1812.5	498.57
293.15 K, x2 = 0.167	1101.42	1.4902	1825.7	520.58
298.15 K, x2 = 0.125	1096.43	1.485	1798.8	491.94
298.15 K, x2 = 0.167	1098.48	1.4877	1811.7	513.69
303.15 K, x2 = 0.125	1092.86	1.4831	1784	486.41
303.15 K, x2 = 0.167	1095.52	1.4861	1799.1	507.54

OCCN(CCO)CCO [triethanolamine] + C[N+](C)(C)CCO.[Cl-]
Settings	mass density, [2] [kg/m3]	refractive index, [1]	speed of sound, [2] [m/s]	viscosity, [2] [mPa·s]
288.15 K, x2 = 0.125	1124.87	1.49	1715.5	522.91
288.15 K, x2 = 0.167	1125.76	1.4926	1734.7	552.67
293.15 K, x2 = 0.125	1122.22	1.4877	1703.1	515.18
293.15 K, x2 = 0.167	1122.89	1.4905	1723.7	545.03
298.15 K, x2 = 0.125	1119.73	1.4856	1691.2	508.55
298.15 K, x2 = 0.167	1120.12	1.4883	1712.2	538.14
303.15 K, x2 = 0.125	1116.88	1.4835	1678.5	503.02
303.15 K, x2 = 0.167	1117.58	1.4865	1700.5	531.99

OCCOCCOCCO [triethylene glycol] + C[N+](C)(C)CCO.[Cl-]
Settings	mass density, [2] [kg/m3]	refractive index, [1]	speed of sound, [2] [m/s]	viscosity, [2] [mPa·s]
288.15 K, x2 = 0.125	1118.76	1.492	1641.2	144.03
288.15 K, x2 = 0.167	1120.95	1.498	1660.5	160.22
293.15 K, x2 = 0.125	1116.27	1.4912	1629.7	136.3
293.15 K, x2 = 0.167	1118.12	1.4971	1648.4	152.58
298.15 K, x2 = 0.125	1113.74	1.4887	1617.8	129.67
298.15 K, x2 = 0.167	1115.27	1.4947	1636.8	145.69
303.15 K, x2 = 0.125	1111.2	1.4872	1605.8	124.14
303.15 K, x2 = 0.167	1112.38	1.4928	1624.9	139.54
